Assay: Weekly hematology (CBC with differential); for Red Blood Cells HCT: test concentration or dose not given here; for White Blood Cells BASO: test concentration or dose not given here; for White Blood Cells EOS: test concentration or dose not given here; for White Blood Cells LYMP + MONO: test concentration or dose not given here; for White Blood Cells NEUT: test concentration or dose not given here; for White Blood Cells WBC: test concentration or dose not given here
Assay type: in vivo, Male Ross x Ross broiler chickens

Question: Which results are given for “Candida utilis phosphoglucomannan-soy bean proteins [CUPS]”?
Answer: Others Het/Poly (Day 3, dose group 1): 19.75%; Red Blood Cells HCT (Day 3, dose group 1): 30.67%; White Blood Cells BASO (Day 3, dose group 1): 127.50 X/uL; White Blood Cells EOS (Day 3, dose group 1): 0.00 X/uL; White Blood Cells LYMP + MONO (Day 3, dose group 1): 2590.00 X/uL; White Blood Cells NEUT (Day 3, dose group 1): 782.50 X/uL; White Blood Cells WBC (Day 3, dose group 1): 3000 µL⁻¹; Others Het/Poly (Day 3, dose group 3): 31.67%; Red Blood Cells HCT (Day 3, dose group 3): 27.80%; White Blood Cells BASO (Day 3, dose group 3): 45.00 X/uL; White Blood Cells EOS (Day 3, dose group 3): 0.00 X/uL; White Blood Cells LYMP + MONO (Day 3, dose group 3): 2060.00 X/uL; White Blood Cells NEUT (Day 3, dose group 3): 1061.67 X/uL; White Blood Cells WBC (Day 3, dose group 3): 3170 µL⁻¹; Others Het/Poly (Day 3, dose group 20): 27.00%; Red Blood Cells HCT (Day 3, dose group 20): 27.00%; White Blood Cells BASO (Day 3, dose group 20): 16.00 X/uL; White Blood Cells EOS (Day 3, dose group 20): 16.00 X/uL; White Blood Cells LYMP + MONO (Day 3, dose group 20): 2950.00 X/uL; White Blood Cells NEUT (Day 3, dose group 20): 818.00 X/uL; White Blood Cells WBC (Day 3, dose group 20): 3800 µL⁻¹; Others Het/Poly (Day 7, dose group 1): 45.00%; White Blood Cells BASO (Day 7, dose group 1): 0.00 X/uL; White Blood Cells EOS (Day 7, dose group 1): 0.00 X/uL; White Blood Cells LYMP + MONO (Day 7, dose group 1): 5500.00 X/uL; White Blood Cells NEUT (Day 7, dose group 1): 4500.00 X/uL; White Blood Cells WBC (Day 7, dose group 1): 10000 µL⁻¹; Others Het/Poly (Day 7, dose group 3): 19.67%; White Blood Cells BASO (Day 7, dose group 3): 146.67 X/uL; White Blood Cells EOS (Day 7, dose group 3): 0.00 X/uL; White Blood Cells LYMP + MONO (Day 7, dose group 3): 5273.33 X/uL; White Blood Cells NEUT (Day 7, dose group 3): 1246.67 X/uL; White Blood Cells WBC (Day 7, dose group 3): 6670 µL⁻¹; Others Het/Poly (Day 7, dose group 20): 33.00%; White Blood Cells BASO (Day 7, dose group 20): 180.00 X/uL; White Blood Cells EOS (Day 7, dose group 20): 0.00 X/uL; White Blood Cells LYMP + MONO (Day 7, dose group 20): 4513.33 X/uL; White Blood Cells NEUT (Day 7, dose group 20): 2306.67 X/uL; White Blood Cells WBC (Day 7, dose group 20): 7000 µL⁻¹; Others Het/Poly (Day 15, dose group 1): 37.00%; Red Blood Cells HCT (Day 15, dose group 1): 32.00%; White Blood Cells BASO (Day 15, dose group 1): 266.67 X/uL; White Blood Cells EOS (Day 15, dose group 1): 0.00 X/uL; White Blood Cells LYMP + MONO (Day 15, dose group 1): 6963.33 X/uL; White Blood Cells NEUT (Day 15, dose group 1): 4436.67 X/uL; White Blood Cells WBC (Day 15, dose group 1): 11670 µL⁻¹; Others Het/Poly (Day 15, dose group 3): 30.67%; Red Blood Cells HCT (Day 15, dose group 3): 29.00%; White Blood Cells BASO (Day 15, dose group 3): 406.67 X/uL; White Blood Cells EOS (Day 15, dose group 3): 0.00 X/uL; White Blood Cells LYMP + MONO (Day 15, dose group 3): 8000.00 X/uL; White Blood Cells NEUT (Day 15, dose group 3): 3926.67 X/uL; White Blood Cells WBC (Day 15, dose group 3): 12330 µL⁻¹; Others Het/Poly (Day 15, dose group 20): 31.67%; Red Blood Cells HCT (Day 15, dose group 20): 24.33%; White Blood Cells BASO (Day 15, dose group 20): 180.00 X/uL; White Blood Cells EOS (Day 15, dose group 20): 0.00 X/uL; White Blood Cells LYMP + MONO (Day 15, dose group 20): 5213.33 X/uL; White Blood Cells NEUT (Day 15, dose group 20): 2606.67 X/uL; White Blood Cells WBC (Day 15, dose group 20): 8000 µL⁻¹; Others Het/Poly (Day 21, dose group 1): 28.33%; Red Blood Cells HCT (Day 21, dose group 1): 30.33%; White Blood Cells BASO (Day 21, dose group 1): 630.00 X/uL; White Blood Cells EOS (Day 21, dose group 1): 0.00 X/uL; White Blood Cells LYMP + MONO (Day 21, dose group 1): 7243.33 X/uL; White Blood Cells NEUT (Day 21, dose group 1): 3126.67 X/uL; White Blood Cells WBC (Day 21, dose group 1): 11000 µL⁻¹; Others Het/Poly (Day 21, dose group 3): 29.67%; Red Blood Cells HCT (Day 21, dose group 3): 31.00%; White Blood Cells BASO (Day 21, dose group 3): 523.33 X/uL; White Blood Cells EOS (Day 21, dose group 3): 0.00 X/uL; White Blood Cells LYMP + MONO (Day 21, dose group 3): 6016.67 X/uL; White Blood Cells NEUT (Day 21, dose group 3): 2793.33 X/uL; White Blood Cells WBC (Day 21, dose group 3): 9330 µL⁻¹; Others Het/Poly (Day 21, dose group 20): 35.50%; Red Blood Cells HCT (Day 21, dose group 20): 31.50%; White Blood Cells BASO (Day 21, dose group 20): 850.00 X/uL; White Blood Cells EOS (Day 21, dose group 20): 0.00 X/uL; White Blood Cells LYMP + MONO (Day 21, dose group 20): 6530.00 X/uL; White Blood Cells NEUT (Day 21, dose group 20): 4120.00 X/uL; White Blood Cells WBC (Day 21, dose group 20): 11500 µL⁻¹; Others Het/Poly (Day 28, dose group 1): 56.33%; Red Blood Cells HCT (Day 28, dose group 1): 33.00%; White Blood Cells BASO (Day 28, dose group 1): 260.00 X/uL; White Blood Cells EOS (Day 28, dose group 1): 0.00 X/uL; White Blood Cells LYMP + MONO (Day 28, dose group 1): 2300.00 X/uL; White Blood Cells NEUT (Day 28, dose group 1): 4106.67 X/uL; White Blood Cells WBC (Day 28, dose group 1): 6670 µL⁻¹; Others Het/Poly (Day 28, dose group 3): 59.00%; Red Blood Cells HCT (Day 28, dose group 3): 29.67%; White Blood Cells BASO (Day 28, dose group 3): 450.00 X/uL; White Blood Cells EOS (Day 28, dose group 3): 0.00 X/uL; White Blood Cells LYMP + MONO (Day 28, dose group 3): 3216.67 X/uL; White Blood Cells NEUT (Day 28, dose group 3): 5000.00 X/uL; White Blood Cells WBC (Day 28, dose group 3): 8670 µL⁻¹; Others Het/Poly (Day 28, dose group 20): 44.00%; Red Blood Cells HCT (Day 28, dose group 20): 27.33%; White Blood Cells BASO (Day 28, dose group 20): 393.33 X/uL; White Blood Cells EOS (Day 28, dose group 20): 0.00 X/uL; White Blood Cells LYMP + MONO (Day 28, dose group 20): 3386.67 X/uL; White Blood Cells NEUT (Day 28, dose group 20): 3553.33 X/uL; White Blood Cells WBC (Day 28, dose group 20): 7330 µL⁻¹; Others Het/Poly (Day 35, dose group 1): 33.00%; Red Blood Cells HCT (Day 35, dose group 1): 29.67%; White Blood Cells BASO (Day 35, dose group 1): 386.67 X/uL; White Blood Cells EOS (Day 35, dose group 1): 0.00 X/uL; White Blood Cells LYMP + MONO (Day 35, dose group 1): 4026.67 X/uL; White Blood Cells NEUT (Day 35, dose group 1): 2253.33 X/uL; White Blood Cells WBC (Day 35, dose group 1): 6670 µL⁻¹; Others Het/Poly (Day 35, dose group 3): 31.00%; Red Blood Cells HCT (Day 35, dose group 3): 29.00%; White Blood Cells BASO (Day 35, dose group 3): 423.33 X/uL; White Blood Cells EOS (Day 35, dose group 3): 0.00 X/uL; White Blood Cells LYMP + MONO (Day 35, dose group 3): 4366.67 X/uL; White Blood Cells NEUT (Day 35, dose group 3): 2210.00 X/uL; White Blood Cells WBC (Day 35, dose group 3): 7000 µL⁻¹; Others Het/Poly (Day 35, dose group 20): 34.67%; Red Blood Cells HCT (Day 35, dose group 20): 25.50%; White Blood Cells BASO (Day 35, dose group 20): 393.33 X/uL; White Blood Cells EOS (Day 35, dose group 20): 0.00 X/uL; White Blood Cells LYMP + MONO (Day 35, dose group 20): 4323.33 X/uL; White Blood Cells NEUT (Day 35, dose group 20): 2283.33 X/uL; White Blood Cells WBC (Day 35, dose group 20): 7000 µL⁻¹; Others Het/Poly (Day 42, dose group 1): 31.33%; Red Blood Cells HCT (Day 42, dose group 1): 30.33%; White Blood Cells BASO (Day 42, dose group 1): 450.00 X/uL; White Blood Cells EOS (Day 42, dose group 1): 0.00 X/uL; White Blood Cells LYMP + MONO (Day 42, dose group 1): 6200.00 X/uL; White Blood Cells NEUT (Day 42, dose group 1): 3016.67 X/uL; White Blood Cells WBC (Day 42, dose group 1): 9670 µL⁻¹; Others Het/Poly (Day 42, dose group 3): 34.67%; Red Blood Cells HCT (Day 42, dose group 3): 29.33%; White Blood Cells BASO (Day 42, dose group 3): 466.67 X/uL; White Blood Cells EOS (Day 42, dose group 3): 0.00 X/uL; White Blood Cells LYMP + MONO (Day 42, dose group 3): 5760.00 X/uL; White Blood Cells NEUT (Day 42, dose group 3): 3106.67 X/uL; White Blood Cells WBC (Day 42, dose group 3): 9330 µL⁻¹; Others Het/Poly (Day 42, dose group 20): 35.00%; Red Blood Cells HCT (Day 42, dose group 20): 28.67%; White Blood Cells BASO (Day 42, dose group 20): 406.67 X/uL; White Blood Cells EOS (Day 42, dose group 20): 0.00 X/uL; White Blood Cells LYMP + MONO (Day 42, dose group 20): 4980.00 X/uL; White Blood Cells NEUT (Day 42, dose group 20): 3013.33 X/uL; White Blood Cells WBC (Day 42, dose group 20): 8670 µL⁻¹; Others Het/Poly (Day 49, dose group 1): 27.33%; Red Blood Cells HCT (Day 49, dose group 1): 29.00%; White Blood Cells BASO (Day 49, dose group 1): 213.33 X/uL; White Blood Cells EOS (Day 49, dose group 1): 40.00 X/uL; White Blood Cells LYMP + MONO (Day 49, dose group 1): 5766.67 X/uL; White Blood Cells NEUT (Day 49, dose group 1): 2646.67 X/uL; White Blood Cells WBC (Day 49, dose group 1): 8670 µL⁻¹; Others Het/Poly (Day 49, dose group 3): 34.33%; Red Blood Cells HCT (Day 49, dose group 3): 30.67%; White Blood Cells BASO (Day 49, dose group 3): 243.33 X/uL; White Blood Cells EOS (Day 49, dose group 3): 0.00 X/uL; White Blood Cells LYMP + MONO (Day 49, dose group 3): 5510.00 X/uL; White Blood Cells NEUT (Day 49, dose group 3): 2913.33 X/uL; White Blood Cells WBC (Day 49, dose group 3): 8670 µL⁻¹; Others Het/Poly (Day 49, dose group 20): 43.33%; Red Blood Cells HCT (Day 49, dose group 20): 30.33%; White Blood Cells BASO (Day 49, dose group 20): 296.67 X/uL; White Blood Cells EOS (Day 49, dose group 20): 0.00 X/uL; White Blood Cells LYMP + MONO (Day 49, dose group 20): 4483.33 X/uL; White Blood Cells NEUT (Day 49, dose group 20): 3553.33 X/uL; White Blood Cells WBC (Day 49, dose group 20): 8330 µL⁻¹
